Test results as given in ChEMBL document CHEMBL1131220, “Isosteric analogues of nicotinamide adenine dinucleotide derived from furanfurin, thiophenfurin, and selenophenfurin as mammalian inosine monophosphate dehydrogenase (type I and II) inhibitors” (J Med Chem, 1998).

How the values were obtained:
[1] = target: T1, Inosine-5'-monophosphate dehydrogenase 1 (Homo sapiens, UniProt P20839); assay: The compound was tested for the inhibition towards […] (Nicotinamide adenine dinucleotide) substrate of Inosine-5'-monophosphate dehydrogenase 1
[2] = target: T1, Inosine-5'-monophosphate dehydrogenase 1; assay: The compound was tested for the inhibition towards IMP(Inosine 5'-monophosphate) substrate of Inosine-5'-monophosphate dehydrogenase 1
[3] = target: T2, Inosine-5'-monophosphate dehydrogenase 2 (Homo sapiens, UniProt P12268); assay: The compound was tested for the inhibition towards […] (Nicotinamide adenine dinucleotide) substrate of Inosine-5'-monophosphate dehydrogenase 2
[4] = target: T2, Inosine-5'-monophosphate dehydrogenase 2; assay: The compound was tested for the inhibition towards IMP(Inosine 5'-monophosphate) substrate of Inosine-5'-monophosphate dehydrogenase 2

T1 sequence (P20839 whole entry): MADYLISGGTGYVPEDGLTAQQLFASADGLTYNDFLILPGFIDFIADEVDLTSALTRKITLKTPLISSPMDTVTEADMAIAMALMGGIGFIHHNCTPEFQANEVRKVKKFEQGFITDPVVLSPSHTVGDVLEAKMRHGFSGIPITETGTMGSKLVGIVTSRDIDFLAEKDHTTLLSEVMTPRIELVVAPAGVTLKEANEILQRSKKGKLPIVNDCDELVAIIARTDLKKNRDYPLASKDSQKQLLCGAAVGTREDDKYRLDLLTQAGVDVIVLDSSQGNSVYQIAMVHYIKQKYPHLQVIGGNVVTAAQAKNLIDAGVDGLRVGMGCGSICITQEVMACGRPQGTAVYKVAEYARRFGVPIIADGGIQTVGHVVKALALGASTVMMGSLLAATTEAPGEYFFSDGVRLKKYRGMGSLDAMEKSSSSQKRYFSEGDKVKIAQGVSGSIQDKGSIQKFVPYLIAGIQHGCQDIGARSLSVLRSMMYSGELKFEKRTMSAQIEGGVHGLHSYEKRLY

| Ki [1] [nM] | Ki [2] [nM] | Ki [3] [nM] | Ki [4] [nM] | SMILES |
| --- | --- | --- | --- | --- |
| 135000 | 38000 | 99100 | 57900 | NC(=O)c1coc([C@@H]2O[C@H](COP(=O)(O)OP(=O)(O)OC[C@H]3O[C@@H](n4cnc5c(N)ncnc54)[C@H](O)[C@@H]3O)[C@@H](O)[C@H]2O)c1 |
| 340 | 370 | 340 | 320 | NC(=O)c1csc([C@@H]2O[C@H](COP(=O)(O)OP(=O)(O)OC[C@H]3O[C@@H](n4cnc5c(N)ncnc54)[C@H](O)[C@@H]3O)[C@@H](O)[C@H]2O)c1 |
| 62 | 33 | 26 | 21 | NC(=O)c1c[se]c([C@@H]2O[C@H](COP(=O)(O)OP(=O)(O)OC[C@H]3O[C@@H](n4cnc5c(N)ncnc54)[C@H](O)[C@@H]3O)[C@@H](O)[C@H]2O)n1 |

| SMILES | Ki [1] [nM] | Ki [2] [nM] | Ki [3] [nM] | Ki [4] [nM] |
| --- | --- | --- | --- | --- |
| NC(=O)c1c[se]c([C@@H]2O[C@H](COP(=O)(O)OP(=O)(O)OC[C@H]3O[C@@H](n4cnc5c(N)ncnc54)[C@H](O)[C@@H]3O)[C@@H](O)[C@H]2O)c1 | 260 | 580 | 270 | 1100 |
